According to publication PMC12114598, “Repositioning FDA-Approved Sulfonamide-Based Drugs as Potential Carbonic Anhydrase Inhibitors in Trypanosoma cruzi: Virtual Screening and In Vitro Studies” (Pharmaceuticals, 2025):

Legend:
[1] = in vitro; format: cell-based; details: mouse
Description: Cytotoxicity assays were performed using the methodology proposed by Domínguez-Diaz et al. on a mouse macrophage cell line (J774.2). Cells were cultured in LIT medium supplemented with 10% SFB, penicillin (100 U μg/mL), and streptomycin (100 U μg/mL) at 37 °C in a 5% CO2 atmosphere. The culture medium was replaced at 2–3 day intervals. To evaluate the cytotoxicity of the compounds, 50,000 cells/well were plated in a 96-well plate and allowed to adhere for 24 h at 37 °C. Subsequently, the compounds were added at concentrations of 0.8 to 100 μg/mL to obtain a final volume of 200 μL and incubated for […] with 5% CO2. DMSO 0.1% (maximum concentration used) was included as a negative control and the control drugs as positive ones. The metabolic activity of the cell was determined following the MTT method, the % cell viability was calculated, and the median lethal concentration (LC50) was determined by Probit analysis. Analyses were performed in triplicate, and the Selectivity Index (SI) for the three parasitic stages in the NINOA and A1 strains (CC50/IC50) was calculated.

[2] = biological target: α-TcCA (Trypanosoma cruzi, UniProt Q4CVY4); experiment: CO2 hydrase stopped-flow assay, α-TcCA
Description: An Applied Photophysics stopped-flow instrument was used for assaying the CA-catalysed CO2 hydration activity [31]. […] The uncatalyzed rates were determined in the same manner and subtracted from the total observed rates. Stock solutions of inhibitor (0.1 mM) were prepared in distilled/deionized water, and dilutions up to 0.01 nM were performed thereafter with the assay buffer. Inhibitor and enzyme solutions were preincubated together for 15 min at room temperature before assaying to allow for the formation of the E–I complex. The inhibition constants were obtained by nonlinear least-squares methods using PRISM 3 and the Cheng–Prusoff equation and represent the mean from at least three different determinations.

[3] = test system: T. cruzi amastigotes, A1 strain; experiment: Amastigote assay, A1 strain; format: cell-based; details: Trypanosoma cruzi; in J774.2 macrophages, 48 h, MTT; ± SD; read-out: Amastigote (Ex Vivo) A1 IC50
Description: (§1) Amastigote susceptibility to reference drugs was evaluated in vitro. […] The lysis solution was then replaced with Schneider’s medium followed by incubation at 28 °C for another 4 to 5 days to allow the transformation of viable amastigotes and their subsequent proliferation. Then, MTT colorimetric assays were performed. Finally, the half maximal inhibitory concentration (IC50) was determined by probit analysis. All studies were approved by the Institutional Committee for Handling and Animal Care of the Facultad de Ciencias Quimicas de la Universidad Autonoma “Benito Juarez” de Oaxaca (Register FCQ-CIP-0209243, Approved 23 September 2024) and were carried out according to Mexican guidance (NOM-062-ZOO-1999).

[4] = biological target: T1, hCA I (Homo sapiens, UniProt P00915); experiment: CO2 hydrase stopped-flow assay, hCA I; format: biochemical; details: mean of three assays, errors ±5–10%
T1 construct: made in house
Description: (§2) An Applied Photophysics stopped-flow instrument was used for assaying the CA-catalysed CO2 hydration activity. […] The uncatalyzed rates were determined in the same manner and subtracted from the total observed rates. Stock solutions of inhibitor (0.1 mM) were prepared in distilled/deionized water, and dilutions up to 0.01 nM were performed thereafter with the assay buffer. Inhibitor and enzyme solutions were preincubated together for 15 min at room temperature before assaying to allow for the formation of the E–I complex. The inhibition constants were obtained by nonlinear least-squares methods using PRISM 3 and the Cheng–Prusoff equation and represent the mean from at least three different determinations. […] All hCA isoforms were recombinant ones obtained in-house, as reported earlier.

[5] = test system: T. cruzi blood trypomastigotes, NINOA strain; experiment: Trypanocidal activity, blood trypomastigotes ex vivo, NINOA strain; format: cell-based; details: Trypanosoma cruzi; 24 h at 4 °C; ± SD; read-out: Trypomastigote (Ex Vivo) NINOA IC50
Description: (§3) Ex vivo evaluation of the trypanocidal activity of the tested compounds was conducted according to previously established protocols. Blood was collected via intracardiac puncture from mice infected with T. cruzi NINOA and A1 strains and diluted in phosphate-buffered saline (PBS, pH 7.2) to achieve a final concentration of 2 × 10^6 blood trypomastigotes/mL. […] The plates were incubated at 4 °C for 24 h. […] Following incubation, live parasites were quantified using a Neubauer chamber, and the half-maximal inhibitory concentration (IC50) was determined by probit analysis. All assays were performed in three independent experiments, each conducted in triplicate.

[6] = test system: T. cruzi epimastigotes, NINOA strain; experiment: Trypanocidal activity, epimastigotes in vitro, NINOA strain; format: cell-based; details: Trypanosoma cruzi; 48 h, resazurin; ± SD; read-out: Epimastigote (In Vitro) NINOA IC50
Source text: (§4) The selected drugs were purchased from Sigma-Aldrich without further purification. For the in vitro evaluation, the methodology proposed by Domínguez-Diaz et al. 2021 [53] against epimastigotes of T. cruzi strains NINOA (MHOM/MX/1994/NINOA) and A1 for the evaluation of candidate compounds was used. Both strains were maintained in liver-infusion tryptose (LIT) medium supplemented with 10% fetal bovine serum (FBS) and 0.1% penicillin–streptomycin. These strains were maintained by transferring 1 × 10^6 parasites/mL to fresh medium once a week. […] All compounds were initially prepared at a concentration of 10 mg/mL using dimethyl sulfoxide (DMSO) as a diluent. Serial dilutions were then performed with LIT medium until concentrations of 100 to 0.46 μg/mL of each compound were obtained. Amounts of 1 × 10^6 T. cruzi epimastigotes were grown in each well and incubated for 48 h at 28 °C in a final volume of 200 μL. DMSO was included as a negative control, and reference drugs as positive controls. At the end of the incubation period, 20 μL of resazurin solution (2.5 mM) was added to each well and incubated for 3 h. All assays were performed in triplicate, and the IC50 value was determined by probit analysis.

[7] = biological target: T2, hCA II (Homo sapiens, UniProt P00918); experiment: CO2 hydrase stopped-flow assay, hCA II; format: biochemical; details: mean of three assays, errors ±5–10%
T2 construct: made in house
Description: as §2

[8] = test system: T. cruzi epimastigotes, A1 strain; experiment: Trypanocidal activity, epimastigotes in vitro, A1 strain; format: cell-based; details: Trypanosoma cruzi; 48 h, resazurin; ± SD; read-out: Epimastigote (In Vitro) A1 IC50
Source text: as §4

[9] = test system: T. cruzi blood trypomastigotes, A1 strain; experiment: Trypanocidal activity, blood trypomastigotes ex vivo, A1 strain; format: cell-based; details: Trypanosoma cruzi; 24 h at 4 °C; ± SD; read-out: Trypomastigote (Ex Vivo) A1 IC50
Description: as §3

[10] = test system: T. cruzi amastigotes, NINOA strain; experiment: Amastigote assay, NINOA strain; format: cell-based; details: Trypanosoma cruzi; in J774.2 macrophages, 48 h, MTT; ± SD; read-out: Amastigote (Ex Vivo) NINOA IC50
Description: as §1

[11] = test system: T. cruzi epimastigotes; set-up: method as in PMID 32560043; details: in vitro epimastigote model; cited from earlier work

α-TcCA, sequence (Q4CVY4 entry or part of it): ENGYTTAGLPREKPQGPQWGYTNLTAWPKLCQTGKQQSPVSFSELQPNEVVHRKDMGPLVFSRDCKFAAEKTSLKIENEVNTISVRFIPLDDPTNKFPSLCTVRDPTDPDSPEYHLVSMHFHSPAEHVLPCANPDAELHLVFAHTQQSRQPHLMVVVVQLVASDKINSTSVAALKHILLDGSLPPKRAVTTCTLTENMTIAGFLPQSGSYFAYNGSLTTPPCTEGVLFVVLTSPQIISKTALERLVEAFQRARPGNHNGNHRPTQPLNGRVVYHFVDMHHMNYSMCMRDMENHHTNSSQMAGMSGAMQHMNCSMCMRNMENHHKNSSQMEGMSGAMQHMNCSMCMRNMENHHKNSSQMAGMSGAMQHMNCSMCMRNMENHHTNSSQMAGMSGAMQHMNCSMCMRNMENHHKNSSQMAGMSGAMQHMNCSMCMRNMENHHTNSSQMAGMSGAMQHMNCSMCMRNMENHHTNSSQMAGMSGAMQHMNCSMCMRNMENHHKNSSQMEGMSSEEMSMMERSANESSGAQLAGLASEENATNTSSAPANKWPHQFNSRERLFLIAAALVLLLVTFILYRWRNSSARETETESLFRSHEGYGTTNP
T1 sequence (P00915 whole entry): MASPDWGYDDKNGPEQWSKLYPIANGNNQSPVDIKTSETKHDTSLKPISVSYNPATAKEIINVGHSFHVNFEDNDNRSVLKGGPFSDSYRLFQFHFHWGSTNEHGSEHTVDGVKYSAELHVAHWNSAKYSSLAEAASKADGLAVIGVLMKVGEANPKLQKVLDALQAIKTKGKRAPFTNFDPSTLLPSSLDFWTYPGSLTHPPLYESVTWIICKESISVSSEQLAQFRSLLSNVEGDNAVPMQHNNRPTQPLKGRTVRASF

| SMILES | CC50 at 48 h [1] | Ki [2] | IC50 [3] | Ki [4] | IC50 [5] | IC50 [6] | Ki [7] | IC50 [8] | IC50 [9] | IC50 [10] | KI TcCA ([2]; mean of three assays, errors ±5–10%) | IC50 [11] |
| --- | --- | --- | --- | --- | --- | --- | --- | --- | --- | --- | --- | --- |
| CC(=O)Nc1nnc(S(N)(=O)=O)s1 [Aaz, acetazolamide] | 12.6 ± 4.7 µM | – | – | – | – | – | – | – | – | – | – | – |
| CC(=O)c1ccc(S(=O)(=O)NC(=O)NC2CCCCC2)cc1 [Ace, acetohexamide] | > 200 µM | 5.6 µM | > 200 µM | 17.3 µM | 46.5 ± 0.1 µM | 6.5 ± 2.1 µM | 2.9 µM | 52.9 ± 2.7 µM | > 200 µM | 46 ± 0.6 µM | – | – |
| O=C(Cn1ccnc1[N+](=O)[O-])NCc1ccccc1 [Bzn, Benznidazole] | – | – | – | – | 167.1 ± 0.03 µM | 30.3 ± 0.03 µM | – | 19.3 ± 0.08 µM | 145.3 ± 0.2 µM | – | – | – |
| Cc1ccc(S(=O)(=O)NC(=O)NN2CC3CCCC3C2)cc1 (stereo not shown) [Glic, gliclazide] | > 200 µM | > 100 µM | 12.3 ± 0.01 µM | > 100 µM | 89.4 ± 0.1 µM | > 200 µM | – | 10.7 ± 1.5 µM | > 200 µM | > 200 µM | – | – |
| CCC1=C(C)CN(C(=O)NCCc2ccc(S(=O)(=O)NC(=O)N[C@H]3CC[C@H](C)CC3)cc2)C1=O [Glim, glimepiride] | 14.2 ± 2.3 µM | 35.7 µM | 50.26 ± 0.01 µM | > 100 µM | > 200 µM | 70.2 ± 3.2 µM | 19.9 µM | 37.6 ± 1.5 µM | > 200 µM | > 200 µM | – | – |
| CC1CS(=O)(=O)CCN1/N=C/c1ccc([N+](=O)[O-])o1 (stereo not shown) [Nfx, Nifurtimox] | – | – | 54.8 ± 0.01 µM | – | 156 ± 0.1 µM | 7.1 ± 0.1 µM | – | 39.1 ± 0.07 µM | 118.2 ± 0.02 µM | 70.5 ± 0.6 µM | – | – |
| CCCCNC(=O)NS(=O)(=O)c1ccc(C)cc1 [Tol, tolbutamide] | > 200 µM | > 100 µM | 44.5 ± 0.01 µM | > 100 µM | 9.8 ± 0.1 µM | 8.5 ± 1.4 µM | > 100 µM | > 200 µM | 97.7 ± 0.1 µM | 148.7 ± 0.01 µM | did not exhibit inhibitory activity | – |
| Cc1cnc(C(=O)NCCc2ccc(S(=O)(=O)NC(=O)NC3CCCCC3)cc2)cn1 [glipizide] | – | – | – | – | – | – | – | – | – | – | – | 13.4 ± 6 µM |
